Assay [1] relates to A2780 ovarian cancer cell line. Put plainly: Cytotoxicity of Ru compounds on A2780 ovarian cancer cell line (cell count, Coulter counter). The format is cell-based. As to conditions: A2780 cells; 24 hours drug exposure, further 3 days growth, cells counted. As to the method:
1. Protocol for Testing Ru Compounds The compounds are tested on 24-well trays. Cells growing in a flask are harvested just before they become confluent, counted using a haemocytometer and diluted down with media to a concentration of 1×10^4 cells per ml. The cells are then seeded in the 24-well trays at a density of 1×10^4 cells per well (i.e. 1 ml of the diluted cell suspension is added to each well). The cells are then left to plate down and grow for 72 hours before adding the compounds of the invention. The Ru complexes are weighed out and made up to a concentration of 1 mg/ml with deionised water and 0.5% w/w DMSO. The appropriate volume of the Ru solution is added to 5 ml of media to make it up to a concentration of 100 μM for each drug. This 100 μM solution is then serially diluted to make up the 10 μM, 1 μM and 0.1 μM solutions. The media is removed from the cells and replaced with 1 ml of the media dosed with drug. Each concentration is done in duplicate. A set of control wells are left on each plate, containing media and 0.5% w/w DMSO without drug. The cells are left exposed to the drugs for 24 hours and then washed with phosphate buffered saline before fresh media is added. They are allowed to grow on for a further 3 days before being counted using a Coulter counter. Preparing Cells for Counting: Media is removed and 1 ml of PBS is added to the cells. 250 μl of trypsin is added and cells left in incubator for a few minutes to allow the monolayers to detach. Once trypsinised, 250 μl of media is added to each well to neutralise the trypsin. 200 μl of this suspension is added to 10 ml of NaCl for counting. Using the above protocol, a number of compounds of the invention were tested on A2780 ovarian cancer cell line. […]

Assay [2] relates to guanosine and adenosine. Put plainly: 1H NMR study of binding to DNA bases (guanosine/adenosine adduct formation). As to conditions: 500 MHz 1H NMR; guanosine:adenosine:compound mole ratio 1.3:1:1 in 10% D2O/90% H2O. The text has this:
The ability of the compounds of the invention to bind to DNA bases was studied by nmr and the results are illustrated in the accompanying figures in which:
FIG. 1 is a 500 MHz ^1H NMR spectrum of a mixture of guanosine:adenosine:compound of Example 1 in the mole ratio 1.3:1:1, respectively, in 10% D2O/90% H2O.
In FIG. 2, the region from 5.1 to 5.4 ppm (right) corresponds to the central CH on the acac ligand. Peaks a and b correspond to the adenosine adducts, peak c to the guanosine adduct. In the region 7.9-8.6 ppm (left), peaks for the H2 and H8 protons of adenosine and H8 protons of guanosine appear. […] The atom labelling scheme for the nucleobase part (A and G) of the nucleosides is shown.

As for `CC#N.CC(=O)C=C(C)[O][Ru+].Cc1ccc(C(C)C)cc1.F[B-](F)(F)F` [Example 6, [(η^6-p-cymene)Ru(CH3CN)(H3CCOCHCOCH3—O,O)]BF4], the midpoint of inhibition in assay [1], the IC50, lay at 22 µM.

Regarding `CC(C)(C)C(=O)[CH-]C(=O)C(C)(C)C.Cc1ccc(C(C)C)cc1.[Cl-].[Ru+2]` [Example 4, [(η^6-p-cymene)RuCl((CH3)3CCOCHCOC(CH3)3—O,O)]], it took 14 µM to reach half-maximal inhibition in assay [1] (IC50).

Consider `Cc1ccc(C(C)C)cc1.O=C([CH-]C(=O)C(F)(F)F)C(F)(F)F.[Cl-].[Ru+2]` [Example 2, [(η^6-p-cymene)RuCl(F3CCOCHCOCF3—O,O)]], for which the half-maximal inhibitory concentration (IC50) (as a rule, the concentration that gives 50% inhibition) in assay [1] was over 100 µM.

Take `CC(=O)C=C(C)[O][Ru][Cl].Cc1ccc(C(C)C)cc1` [Example 1, [(η^6-p-cymene)RuCl(H3CCOCHCOCH3-O,O)]]: the “adduct formation with adenosine and guanosine (binding to DNA bases)” value in assay [2] was “both adenosine and guanosine form adducts”. The same molecule showed an IC50 in assay [1] of 19 µM.

Consider `Cc1ccc(C(C)C)cc1.O=C([CH-]C(=O)c1ccccc1)c1ccccc1.[Cl-].[Ru+2]` [Example 3, [(η^6-p-cymene)RuCl(C6H5COCHCOC6H5—O,O)]], for which it took 11 µM to reach half-maximal inhibition in assay [1] (IC50).

As to `CC(=O)C=C(C)[O][Ru][Cl].c1ccc(-c2ccccc2)cc1` [Example 5, [(η^6—C6H5C6H5RuCl(H3CCOCHCOCH3—O,O)]], inhibition in assay [1] was half-maximal at 21 µM (IC50).

These data come from patent US20060058270A1, “Ruthenium anticancer complexes” (priority 2002, published 2006).
